Data set [1] in a line: Pharmacokinetic evaluation in mice. In kind it is in vivo, male ICR mice. As to conditions: for AUC(0-t) / clearance / half-life / Vd / Cmax / Tmax: male, ICR, mouse, plasma; for Vd: read-out: Vss; for F: po 10 mg/kg vs iv 2 mg/kg. The procedure: Example 344. Pharmacokinetic Evaluation in Mice
The compounds were administered by intravenous injection at a dose of 2 mg/kg and oral gavage at a dose of 10 mg/kg (0.5% CMC-Na suspension). 15 male ICR mice were selected for each group, and each mouse was subjected to blood collection at 3 discrete time points, with 3 mice at each time point. The time points of sampling were as follows: before administration, and 5 min, 15 min, 30 min, 1 h, 3 h, 5 h, 8 h, 12 h and 24 h after administration. 80 μL of blood was collected from the orbits or hearts of the mice at each time point after administration. All whole blood samples were collected in tubes containing EDTA K2 and centrifuged (1500-1600 rmp/min) at 4° C. for 10 min to isolate plasma, which was then stored in a refrigerator at −90° C. to −60° C. for sample analysis. The compound concentration in the plasma was determined by liquid chromatography-tandem mass spectrometry, and the corresponding pharmacokinetic parameters were obtained according to a plasma concentration-time curve.

Data set [2] concerns HT29 cells. Kind of data set: Antiproliferative activity against HT29 cells (Cell Titer-Lumi, ATP content). In kind it is cell-based. As to conditions: Homo sapiens, HT-29, 72 after compound addition, read-out: HT-29 cells Anti-proliferative activity (IC50 for the inhibition against HT-29 cell growth). Summed up: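 3000 cells per well, allowed to adhere overnight, then exposed to a gradient dilution of compound for 72 (units as printed). Cellular ATP read by luminescence (Cell Titer-Lumi) as a growth measure; IC50 for growth inhibition calculated.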

In data set [3] the target is T1, Wee-1 kinase (Homo sapiens, UniProt P30291).
T1 construct: purchased Invitrogen
T1 sequence (P30291 whole entry): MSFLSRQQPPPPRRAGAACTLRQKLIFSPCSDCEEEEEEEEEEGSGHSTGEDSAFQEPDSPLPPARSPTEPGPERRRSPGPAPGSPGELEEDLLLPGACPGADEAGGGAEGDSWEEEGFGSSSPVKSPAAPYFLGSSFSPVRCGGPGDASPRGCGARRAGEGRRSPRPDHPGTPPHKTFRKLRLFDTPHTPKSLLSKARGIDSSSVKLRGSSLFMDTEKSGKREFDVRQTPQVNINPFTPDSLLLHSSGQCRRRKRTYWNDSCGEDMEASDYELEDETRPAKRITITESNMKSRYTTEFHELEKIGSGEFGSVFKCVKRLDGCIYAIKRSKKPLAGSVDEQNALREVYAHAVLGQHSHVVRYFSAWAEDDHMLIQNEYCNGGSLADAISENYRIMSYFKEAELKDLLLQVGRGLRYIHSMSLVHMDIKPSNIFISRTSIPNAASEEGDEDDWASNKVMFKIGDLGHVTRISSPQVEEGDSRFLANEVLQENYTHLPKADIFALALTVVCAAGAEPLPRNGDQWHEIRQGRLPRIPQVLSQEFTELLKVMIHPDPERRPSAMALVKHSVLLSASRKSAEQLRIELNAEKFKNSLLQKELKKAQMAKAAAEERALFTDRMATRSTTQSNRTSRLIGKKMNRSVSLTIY
Kind of data set: Inhibitory activity against Wee-1 kinase (Lanthra Screen Wee-1 kinase kit, Tracer 178). In kind it is binding. To be noted: Wee-1 kinase 5 nM, Tracer 178 50 nM, 1 h room temperature. In short, it runs like this: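 LanthaScreen binding format: Wee-1 kinase (5 nM final) with Eu-anti-GST antibody (2 nM final) and kinase Tracer 178 (50 nM final), compounds serially diluted in DMSO. 1 h at room temperature before reading. IC50 relative to DMSO control.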

The mark [4] stands for this setting: po, 10 mg/kg, 0.5% CMC-Na suspension.

SMILES strings stand for the structures.

In general, AUC(0-t) refers to exposure summed from dosing to a finite time, without extrapolation to infinity. Read a low AUC(0-t) as less exposure. As a reminder, the clearance is the rate of elimination divided by the concentration. In general, half-life refers to the time needed for the level to fall by half in the phase considered. Read a low half-life as fast loss. As usually defined, the Cmax is the maximum level reached in the sampled fluid or tissue. A word on the Tmax: it is the time from dosing to the highest level. The term IC50 denotes the point on the concentration scale where inhibition reaches its midpoint. Consider `C=CCn1c(=O)c2cnc(Nc3ccc(N4CCN(C)CC4)cc3)nc2n1-c1cccc(C(C)(C)O)n1` [AZD-1775, reference compound], for which, in data set [1] (iv, 2 mg/kg), the AUC(0-t) was 152 ng·h/mL, the clearance was 220 mL/min/kg, the half-life is 18 min and the Vd was 3.51 L/kg. Besides, in data set [1] (setting [4]), the AUC(0-t) was 215 ng·h/mL, the Cmax is 247 ng/mL, the Tmax is 30 min and the half-life is 87 min. The compound further showed a F in data set [1] of 28.3%. Moreover, the IC50 in data set [2] is ≤ 1 µM.
As for `C=CCn1c(=O)c2cnc(Nc3ccc(N4CCN(C)CC4)cc3)nc2n1-c1ccc(=O)n(C(C)C)n1` [Compound 3], the “oral absorption characteristics (in words)” value in data set [1] (compared with control drug AZD-1775) is “good oral absorption characteristics”. In data set [1] (iv, 2 mg/kg), the AUC(0-t) was 736 ng·h/mL, the clearance came out at 45.3 mL/min/kg, the half-life is 43.1 min and the Vd is 1.8 L/kg. Moreover, in data set [1] (setting [4]), the area under the curve AUC(0-t) worked out at 1210 ng·h/mL, the Cmax is 533 ng/mL, the Tmax was determined as 15 min and the half-life was 115 min. In data set [1], this compound yielded an F of 32.9%. Further, in data set [3], the IC50 is ≤ 0.03 µM. For the same compound, the IC50 in data set [2] is ≤ 1 µM.
Regarding `C=CCn1c(=O)c2cnc(Nc3ccc4c(ccn4C4CCN(C(C)C)CC4)c3)nc2n1-c1ccc(=O)n(C(C)C)n1` [Compound 271], the values for the IC50 in data set [3] and in data set [2] were ≤ 0.03 µM and ≤ 1 µM, respectively.
In the case of `C=CCn1c(=O)c2cnc(Nc3ccc(N4CCC5(CC4)CNC5)c(C)c3)nc2n1-c1ccc(=O)n(C(C)C)n1` [Compound 176], the IC50 in data set [3] is ≤ 0.03 µM; in data set [2], ≤ 1 µM.
In the case of `C=CCn1c(=O)c2cnc(Nc3cc(Cl)c(N4CCNCC4)c(Cl)c3)nc2n1-c1ccc(=O)n(C(C)C)n1` [Compound 61], the results for the IC50 in data set [3] and in data set [2] were ≤ 0.03 µM and ≤ 1 µM, respectively.
The matching figures for `CCn1c(=O)c2cnc(Nc3ccc(N4CCN(C)CC4)cc3)nc2n1-c1ccc(=O)n(C(C)(C)C)n1` [Compound 284]: ≤ 0.03 µM and ≤ 1 µM.
The matching figures for `C=CCn1c(=O)c2cnc(Nc3ccc(N4CCN(C)CC4)cc3)nc2n1-c1ccc(=O)n(C2CC2)n1` [Compound 11]: ≤ 0.03 µM and ≤ 1 µM.
The matching figures for `C=CCn1c(=O)c2cnc(Nc3ccc(C4CCN(C)CC4)c(C)c3)nc2n1-c1ccc(=O)n(C(C)C)n1` [Compound 193]: ≤ 0.03 µM and ≤ 1 µM.
Take `C=CCn1c(=O)c2cnc(Nc3ccc(N4CCN(C)CC4)cc3)nc2n1-c1cc(C)c(=O)n(C(C)C)n1` [Compound 22]: the IC50 is ≤ 0.03 µM in data set [3] and ≤ 1 µM in data set [2].
The matching figures for `CC(C)n1c(=O)c2cnc(Nc3ccc4c(c3)CN(C)CC43CC3)nc2n1-c1ccc(=O)n(C(C)(C)C)n1` [Compound 291]: ≤ 0.03 µM and ≤ 1 µM.
Regarding `C=CCn1c(=O)c2cnc(Nc3ccc4c(N5CCN(C(C)C)CC5)c[nH]c4c3)nc2n1-c1ccc(=O)n(C(C)C)n1` [Compound 262], the IC50 in data set [3] is ≤ 0.03 µM; in data set [2], ≤ 1 µM.
The matching figures for `C=CCn1c(=O)c2cnc(Nc3ccc(N4CCN(C)[C@@H](C)C4)cc3)nc2n1-c1ccc(=O)n(C(C)C)n1` [Compound 129]: ≤ 0.03 µM and ≤ 1 µM.
In the case of `C=CCn1c(=O)c2cnc(Nc3ccc(N4CCC(N5CCCC5)CC4)c(OC)c3)nc2n1-c1ccc(=O)n(C(C)C)n1` [Compound 91], the IC50 is ≤ 0.03 µM in data set [3] and ≤ 1 µM in data set [2].
Regarding `C=CCn1c(=O)c2cnc(Nc3cc(Cl)cc(N4CCN(C)CC4)c3)nc2n1-c1ccc(=O)n(C(C)C)n1` [Compound 74], the figures for the IC50 in data set [3] and in data set [2] were ≤ 0.03 µM and ≤ 1 µM, respectively.
The matching figures for `C=CCn1c(=O)c2cnc(Nc3ccc(N4CCC5(CC4)CN(C)C5)c(OC)c3)nc2n1-c1ccc(=O)n(C(C)C)n1` [Compound 180]: ≤ 0.03 µM and ≤ 1 µM.
With `C=CCn1c(=O)c2cnc(Nc3ccc(N4C[C@@H](C)N[C@@H](C)C4)cc3)nc2n1-c1ccc(=O)n(C(C)C)n1` [Compound 116], the IC50 was ≤ 0.03 µM in data set [3] and ≤ 1 µM in data set [2].
As for `Cc1cc(Nc2ncc3c(=O)n(C(C)C)n(-c4ccc(=O)n(C(C)C)n4)c3n2)ccc1N1CCN(C)CC1` [Compound 278], the IC50 was ≤ 0.03 µM in data set [3] and ≤ 1 µM in data set [2].
For `C=CCn1c(=O)c2cnc(Nc3ccc(C4(C)CCCN(C)C4)cc3)nc2n1-c1ccc(=O)n(C(C)C)n1` (stereo not drawn) [Compound 203] the same measures were ≤ 0.03 µM and ≤ 1 µM.
The matching figures for `C=CCn1c(=O)c2cnc(Nc3cc(C)cc(N4CCN(C)CC4)c3)nc2n1-c1ccc(=O)n(C(C)C)n1` [Compound 70]: ≤ 0.03 µM and ≤ 1 µM.
The matching figures for `C=CCn1c(=O)c2cnc(Nc3ccc(N4CCC5(CN(C)C5)C4)c(OC)c3)nc2n1-c1ccc(=O)n(C(C)C)n1` [Compound 174]: ≤ 0.03 µM and ≤ 1 µM.
As for `C=CCn1c(=O)c2cnc(Nc3ccc(N4CC5(CCNC5)C4)c(OC)c3)nc2n1-c1ccc(=O)n(C(C)C)n1` [Compound 162], the results for the IC50 in data set [3] and in data set [2] were ≤ 0.03 µM and ≤ 1 µM, respectively.
For `C=CCn1c(=O)c2cnc(Nc3ccc(N4CCNCC4)c(OC)c3)nc2n1-c1ccc(=O)n(C(C)C)c1` [Compound 47] the same measures were ≤ 0.03 µM and ≤ 1 µM.
The matching figures for `C=CCn1c(=O)c2cnc(Nc3ccc(N4CCC(C)(N)CC4)c(OC)c3)nc2n1-c1ccc(=O)n(C(C)C)n1` [Compound 109]: ≤ 0.03 µM and ≤ 1 µM.
As to `C=CCn1c(=O)c2cnc(Nc3ccc(N4CCN(C)CC4)c(C)c3)nc2n1-c1ccc(=O)n(C(C)(C)C)c1` [Compound 327], the IC50 in data set [3] was ≤ 0.03 µM; in data set [2] it was ≤ 1 µM.
For the compound `CCn1c(=O)c2cnc(Nc3ccc(N4CCN(C)CC4)c(C)c3)nc2n1-c1ccc(=O)n(C(C)C)c1` [Compound 300], the values for the IC50 in data set [3] and in data set [2] were ≤ 0.03 µM and ≤ 1 µM, respectively.
For the compound `C=CCn1c(=O)c2cnc(Nc3ccc(N4CCC5(CNC5)C4)cc3)nc2n1-c1ccc(=O)n(C(C)C)n1` [Compound 169], the IC50 in data set [3] is ≤ 0.03 µM; in data set [2] it was 1 to 3 µM.
The matching figures for `C=CCn1c(=O)c2cnc(Nc3ccc(C4(C)CCNCC4)cc3)nc2n1-c1ccc(=O)n(C(C)C)n1` [Compound 200]: ≤ 0.03 µM and ≤ 1 µM.
Turning to `C=CCn1c(=O)c2cnc(Nc3ccc4c(N5CCN(C)CC5)c[nH]c4c3)nc2n1-c1ccc(=O)n(C(C)C)n1` [Compound 261], the results for the IC50 in data set [3] and in data set [2] were ≤ 0.03 µM and ≤ 1 µM, respectively.
The matching figures for `C=CCn1c(=O)c2cnc(Nc3ccc(N4CC5CCC(C4)N5C)cc3)nc2n1-c1ccc(=O)n(C(C)C)n1` [Compound 136]: 0.03 to 0.1 µM and 1 to 3 µM.
As to `C=CCn1c(=O)c2cnc(Nc3ccc(N4CCC(N5CCCCC5)CC4)c(OC)c3)nc2n1-c1ccc(=O)n(C(C)C)n1` [Compound 147], the IC50 in data set [3] is ≤ 0.03 µM; in data set [2], ≤ 1 µM.
The matching figures for `CC(C)n1cc(-n2c3nc(Nc4ccc(N5CCN(C)CC5)cc4)ncc3c(=O)n2C2CC2)cc(F)c1=O` [Compound 323]: ≤ 0.03 µM and ≤ 1 µM.
On to `C=CCn1c(=O)c2cnc(Nc3cc(OC)cc(C4CCN(C)CC4)c3)nc2n1-c1ccc(=O)n(C(C)C)n1` [Compound 213], for which the IC50 in data set [3] was ≤ 0.03 µM; in data set [2] it was ≤ 1 µM.
For `C=CCn1c(=O)c2cnc(Nc3cc(C)cc(C4CCNCC4)c3)nc2n1-c1ccc(=O)n(C(C)C)n1` [Compound 206] the same measures were ≤ 0.03 µM and ≤ 1 µM.
For `C=CCn1c(=O)c2cnc(Nc3ccc(N4CCC(C)(N)CC4)cc3)nc2n1-c1ccc(=O)n(C(C)C)n1` [Compound 107] the same measures were ≤ 0.03 µM and ≤ 1 µM.
For `C=CCn1c(=O)c2cnc(Nc3ccc(C4CCNCC4)c(C)c3)nc2n1-c1ccc(=O)n(C(C)C)n1` [Compound 192] the same measures were ≤ 0.03 µM and ≤ 1 µM.
For the compound `Cc1cc(Nc2ncc3c(=O)n(C4CC4)n(-c4ccc(=O)n(C(C)(C)C)n4)c3n2)ccc1N1CCN(C)CC1` [Compound 293], the figures for the IC50 in data set [3] and in data set [2] were ≤ 0.03 µM and ≤ 1 µM, respectively.

The values are drawn from patent US12522607B2, “Substituted pyrazolo[3,4-d]pyrimidines as wee-1 inhibitors” (WIGEN BIOMEDICINE TECHNOLOGY (SHANGHAI) CO., LTD., priority 2020, dated 2026).
